Data set [1] relates to hESCs (BG02). The data set can be described thus: Real-time impedance assay (RT-CES) for inhibitory and cytotoxic agents on hESCs. As to conditions: 10 μM compound added after about 24 hours, cultured about 5 more days; compared to DMSO control. An excerpt:
The foregoing 176 selected compounds from the complete LOPAC1280™ library were then used to screen human pluripotent stem cells, e.g., hESCs, and differentiating cultures during Stage 1 (definitive endoderm) using a real-time impedance assay (ACEA biosciences RT-CES system). The RT-CES system uses 96-well trays that contain embedded microsensors to monitor changes in electrical impedance, which is translated into a measure of cell index. Any overt alteration within a cell culture can be detected, including but not limited to cell proliferation, migration, cell spreading, apoptosis, differentiation and the like. […] An increase in the cell index indicates proliferation of the cells, for example, proliferation of the undifferentiated cells. […] See also FIG. 1. […] A “scallop” cell index is one which remains high due to a confluent culture of cells, but will go down and up (scallop) between daily feedings. Conversely, cells undergoing differentiation have distinctive patterns, such as peaks and troughs in the cell index, potentially indicative of an epithelial-to-mesenchymal transition, flattening, cell migration, apoptosis or similar differentiation and growth related changes.
Impedance Assay for Inhibitory and Cytotoxic Agents. Human pluripotent stem cells, e.g., 2×10^4 hESCs (BG02), were cultured in DC-HAIF, a heregulin-based defined media, with daily feeding in the impedance monitoring plates. After about 24 hours, and 10 μM of the selected LOPAC1280™ compound was added to each well (see arrowhead in FIGS. 3 A & B) and cultured for about an additional 5 days.

The test system of data set [2] is undifferentiated hESCs growing in adherent culture. The data set can be described thus: EC50 of cytotoxic effect on undifferentiated hESCs in adherent culture, real-time impedance assay. Type of data set: cell-based, human. As to conditions: undifferentiated hESCs, adherent culture, real-time impedance; read-out: EC50 concentrations for hES cells (cytotoxic effect). As for the experimental part: In summary, the final three (3) candidates identified from both the primary and secondary screens (EXAMPLE 1) and the full screen of the LOPAC1280™ collection (EXAMPLE 2) were Chelerythrine Chloride, Caffeic acid and Ivermectin. FIG. 11 lists the known or inferred mode(s) of action for these three compounds, as well as their structures. EC50 values for the respective cytotoxic effects on undifferentiated hESCs growing in adherent culture were determined using real-time impedance assays.
(§1) Depletion of OCT4-positive cells during Stage 1 differentiation was examined using the plating assay described above. Stage 1 differentiations of hES cells were treated from day 1 to 2 with the candidate compounds as described in Example 2 (chelerythrine chloride, caffeic acid and Ivermectin), at their EC50 concentrations for hES cells. Plated untreated and DMSO-treated aggregates were indistinguishable, and both contained discrete clusters of OCT4-positive cells. See FIG. 13A top and bottom panels for a DMSO treated example. The intensity of OCT4-positive staining in differentiating aggregate cell cultures treated with DMSO (control) was equivalent to undifferentiated hES cells.

Data set [3] deals with OCT4-positive cells in Stage 1 differentiations of hES cells. As to the kind of experiment: Plating assay for depletion of OCT4-positive cells in Stage 1 suspension aggregates, OCT4 immunostaining. Particulars: treated day 1 to 2 of Stage 1 at EC50 concentration; plated 24 hours in hESC medium; vs untreated or DMSO. Type of data set: cell-based, human. The protocol: Human ES cell suspension aggregates were formed in rotational culture as described previously and differentiated through Stage 1 (definitive endoderm). About 20-30 aggregates were then plated per well in 4-well tissue culture dishes coated with MATRIGEL· diluted 1:200, and cultured for 24 hours in hESC medium (DMEM/F12, 10% XF-KSR, 10 ng/mL Activin A and 10 ng/mL Heregulin). This approach was intended to increase the contrast in OCT4 expression between undifferentiated hESCs and cells committed to differentiation. […] Stated in another way, mixed population cell cultures in hESC medium would potentially support expansion/proliferation of residual undifferentiated (hESCs), thereby show increased OCT4 gene expression, as compared to cells committed to differentiation, which would have decreased of OCT4 gene expression. Plated aggregates were immunostained for OCT4 protein and counterstained with DAPI, a nuclear stain (FIG. 12). The cell aggregates that were plated had flattened and spread out within a 24-hour period; while the centers of the aggregates were still domed. […] Brightly staining OCT4-positive cells were easily identified and distinguishable from the majority of OCT4 negative cells. OCT4-positive cells were generally found in clusters and most often within the domed area of a plated aggregate. […] Smaller aggregates residing in a larger aggregate may occur as a result of the initial stages of rotational culture, or the aggregation process, during which small clusters (primary aggregates) form initially. Aggregation of two or more primary aggregates likely leads to the formation of larger secondary aggregates, which can be 100-150 μm in diameter. Thus, it is possible that any single clusters of OCT4-positive cells exist at the center of a primary aggregate and resist differentiation. Such clusters would remain substantially undifferentiated and stain OCT4-positive. One hypothesis is that primary aggregates are specified to differentiation relative to their positioning in primary and secondary aggregates. For example, FIGS. 12A through 12E show a representative series of images, from small (primary) (e.g. FIGS. 12A and 12B) and larger (secondary) (e.g. FIGS. 12C-12E) plated aggregates containing OCT4-positive clusters (dark circles).
as §1
Additional experiments were performed using higher concentrations of compounds and extended effects of the compounds in cell culture plated aggregates in hESC medium for 24 or 72 hours before staining (FIGS. 15 and 16). […] Another group of Stage 1 differentiating cultures were processed in parallel, but treated with 10 μm chelerythrine chloride.

pEC50: −log10 of the molar value.

Consider `N#C/C(=C\c1ccc(O)c(O)c1)C(=O)NCc1ccccc1` [Tyrphostin AG 490], for which the “cell index (impedance); inhibitory or cytotoxic effect on the hESCs” value in data set [1] was “significant decrease”.
Still for that read-out and setting: to `CN(N=O)c1cc(O)ccc1O` [Dephostatin] belongs “significant decrease”.
On to “22, 23-dihydroavermectin B1a+22,23-dihydroavermectin B1b [Ivermectin]”, for which the pEC50 in data set [2] is 6.77. Further, the “intensity for OCT4 staining” value in data set [3] is given as “significantly decreased”.

The values are drawn from US9365830B2, “Agents and methods for inhibiting human pluripotent stem cell growth” (VIACYTE, INC., priority 2010, dated 2016).
